The source of these data is paper PMC10350924, “Design, Synthesis, and Pharmacological Characterization of a Potent Soluble Epoxide Hydrolase Inhibitor for the Treatment of Acute Pancreatitis” (Journal of Medicinal Chemistry, 2023).

SMILES strings stand for the structures. A value given as a limit tells only on which side of the number the result lay.

Test [1] deals with cerulein-induced acute pancreatitis. In words: Cerulein-induced acute pancreatitis in mice. Type of test: in vivo. The note with it: 10 mg/kg i.p. 0.5 and 2.5 h after first cerulein injection; 6 h. The protocol:
Male CD-1 mice (33–39 g, 8 weeks, Charles River Laboratories; Calco, Italy) were fed with standard rodent chow and water and acclimated for 4 days at a 12 h light and 12 h dark schedule in a constant air-conditioned environment (21 ± 2 °C). The mice were randomly assigned to groups, and experiments were carried out during the light phase. Experimental procedures were conducted in conformity with Italian (D.L. 26/2014) and European (directive 2010/63/EU) regulations on the protection of animals used for scientific purposes and approved by the Italian Ministry. Acute pancreatitis (AP) was induced in mice by intraperitoneal (i.p.) injections of cerulein (50 μg/kg) hourly (5 times).[56] The groups were: (a) Sham group which received saline i.p. hourly (×5); […] The mice were killed 6 h after the first cerulein injection. Blood samples were obtained by direct intracardiac puncture. Pancreases and lungs were removed immediately, frozen, and stored at −80 °C until assayed. Portions of these organs were also fixed in formaldehyde for histological and immunohistochemical examination. Pancreas and lung sections (6 μm) were stained for hematoxylin & eosin (H&E). Evaluation of pancreas edema and inflammation signs were performed with a three-point scoring system. […] Analysis was performed in a blinded manner. Evaluation of lung edema and inflammatory infiltration was performed with three-point scoring system: 0, absent; 1, mild; 2, moderate; 3, severe. […] Tissue sections were then incubated with normal goat serum (Vector Laboratories, Newark, California) for 20 min to reduce nonspecific antibody interactions. Sections were incubated with primary antibody diluted in 0.01 M PBS, 2.5% normal serum (anti-Neutrophils rat monoclonal antibody, dilution 1:100, Abcam) for 30 min. After rinsing with PBS 0.01 M for 5 min, slides were incubated with biotinylated goat anti-rat IgG (Vector Laboratories, Newark, California), diluted 1:200, for 30 min. After rinsing with PBS 0.01 M for 5 min, slides were incubated with VECTASTAIN ABC Reagent (Vector Laboratories, Newark, California) for 30 min. Color development was performed using […] 3,3′-diaminobenzidine solution (Sigma-Aldrich, Milan, Italy), and sections were analyzed using Leica Microsystem with a magnification of 20x. Semiquantitative determination of protein expression was obtained with ImageJ/Fiji software. Liver injury was assessed by measuring the rise in plasma levels of alanine aminotransferase (ALT, a specific marker for hepatic parenchymal injury) and aspartate aminotransferase (AST, a nonspecific marker for hepatic injury) 6 h after cerulein injection by a clinical laboratory. Results are expressed in international units per milliliter.

The target of test [2] is T1, Human recombinant sEH (Homo sapiens, UniProt P34913).
T1 construct: made in house; host or cells: Sf9 insect cells (recombinant baculovirus)
T1 sequence (P34913 1-555): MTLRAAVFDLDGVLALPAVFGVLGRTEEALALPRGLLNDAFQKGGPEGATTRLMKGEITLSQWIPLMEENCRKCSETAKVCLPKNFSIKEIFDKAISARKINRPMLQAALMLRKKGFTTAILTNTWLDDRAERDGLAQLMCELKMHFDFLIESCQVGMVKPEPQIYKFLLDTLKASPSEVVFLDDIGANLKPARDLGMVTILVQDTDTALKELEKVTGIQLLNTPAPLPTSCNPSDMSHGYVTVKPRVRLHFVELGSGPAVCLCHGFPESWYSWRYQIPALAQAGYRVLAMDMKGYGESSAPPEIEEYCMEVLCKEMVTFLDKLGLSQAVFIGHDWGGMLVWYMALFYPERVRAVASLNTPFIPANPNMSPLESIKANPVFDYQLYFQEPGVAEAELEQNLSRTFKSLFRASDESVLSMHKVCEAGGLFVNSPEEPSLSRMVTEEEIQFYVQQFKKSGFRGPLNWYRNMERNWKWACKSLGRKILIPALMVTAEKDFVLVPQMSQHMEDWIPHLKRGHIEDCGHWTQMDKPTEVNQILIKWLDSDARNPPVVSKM
The experiment in a line: Cell-free sEH activity (PHOME fluorescence). The note with it: human isolated sEH. The class given is biochemical. Here is the method:
Human recombinant sEH was expressed in Sf9 insect cells and purified by affinity chromatography. […] Elution with 4-fluorochalcone oxide in PBS pH 7.4 with 1 mM dithiothreitol and 1 mM EDTA yielded sEH, which was dialyzed and concentrated. Purified sEH (60 ng) in 25 mM Tris HCl pH 7 with 0.1 mg/mL bovine serum albumin (BSA) was preincubated with the vehicle (DMSO) or test compounds for 1 min at room temperature. The sEH substrate PHOME (20 μM, Cayman Chemicals) was added to start the enzymatic reaction, which was stopped after 60 min in the dark by the addition of ZnSO4 (200 mM).

The target of test [3] is T2, 5-LOX (Homo sapiens, UniProt P09917).
T2 sequence (P09917 1-674): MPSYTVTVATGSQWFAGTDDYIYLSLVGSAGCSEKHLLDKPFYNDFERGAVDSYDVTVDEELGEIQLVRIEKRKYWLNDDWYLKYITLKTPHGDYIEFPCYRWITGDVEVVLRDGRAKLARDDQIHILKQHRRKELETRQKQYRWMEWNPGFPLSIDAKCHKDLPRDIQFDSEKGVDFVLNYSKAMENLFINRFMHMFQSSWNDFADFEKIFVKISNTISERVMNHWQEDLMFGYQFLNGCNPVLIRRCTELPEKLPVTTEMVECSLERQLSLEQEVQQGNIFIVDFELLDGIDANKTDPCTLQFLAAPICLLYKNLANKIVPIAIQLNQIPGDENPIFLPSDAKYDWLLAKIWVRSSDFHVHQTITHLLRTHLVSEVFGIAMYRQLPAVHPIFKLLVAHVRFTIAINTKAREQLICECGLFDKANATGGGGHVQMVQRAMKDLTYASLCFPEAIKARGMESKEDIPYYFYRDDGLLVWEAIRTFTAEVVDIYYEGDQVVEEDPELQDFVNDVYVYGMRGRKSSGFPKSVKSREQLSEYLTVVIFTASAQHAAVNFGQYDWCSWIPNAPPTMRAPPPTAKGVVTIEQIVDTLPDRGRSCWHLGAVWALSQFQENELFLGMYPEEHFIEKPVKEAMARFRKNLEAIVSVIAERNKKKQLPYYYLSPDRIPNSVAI
In words: Cell-free 5-LOX activity assay. Particulars: human isolated 5-LOX. Further details: made in house; host or cells: Escherichia coli Bl21 (DE3). Type of test: biochemical. The protocol:
Human recombinant 5-LOX was expressed in Escherichia coli Bl21 (DE3) cells that were transformed with the plasmid pT3-5LO (wt 5-LOX) and purified on an adenosine triphosphate (ATP)-agarose column by affinity chromatography.[40],[41] In a first step, E. coli was lysed in 50 mM triethanolamine/HCl pH 8.0 with ethylenediamine tetraacetic acid (EDTA) (5 mM), soybean trypsin inhibitor (60 μg/mL), phenylmethanesulfonyl fluoride (1 mM), dithiothreitol (1 mM), and lysozyme (1 mg/mL) and sonicated 3 times for 15 s. The homogenate was centrifuged at 40,000g for 20 min at 4 °C. The supernatant was transferred to an ATP-agarose column (Sigma-Aldrich, Deisenhofen, Germany), which was sequentially washed with phosphate-buffered saline (PBS) pH 7.4, 1 mM EDTA, 50 mM phosphate buffer pH 7.4, 0.5 M NaCl, 1 mM EDTA, and finally 50 mM phosphate buffer pH 7.4 plus 1 mM EDTA. The enzyme was eluted with 50 mM phosphate buffer pH 7.4, 1 mM EDTA, and 20 mM ATP.
5-LOX product formation was started by the addition of 20 μM arachidonic acid (Sigma-Aldrich) and CaCl2 (2 mM) and stopped by the addition of an equal volume of ice-cold methanol containing PGB1 (200 ng) as internal standard after 10 min at 37 °C.

Test [4] has as its target T2, 5-LOX. The experiment in a line: 5-LOX product formation in human activated PMNL (A23187). Type of test: cell-based. Further details: Freshly isolated PMNL (5 × 10^6) suspended in PBS pH 7.4 with 1 mg/mL glucose were preincubated with the test compounds; endogenous in cells; host or cells: human PMNL from donor blood; remaining activity: dose or concentration left out as unconfirmed. The note with it: for remaining activity at 10 µM: human activated PMNL, read-out: 5-LOX residual activity in PMNL (%) at 10 μM; for remaining activity: PMNL, read-out: 5-LO residual activity in PMNL (%). Here is the method: Human PMNL were freshly isolated from leukocyte concentrates that were obtained from the Institute for Transfusion Medicine of the University Hospital Jena (Germany). […] These volunteers regularly donated blood (every 8–12 weeks) and were physically inspected by a clinician. […] Leukocytes were concentrated by centrifugation (4000g/20 min/20 °C) of freshly withdrawn blood. […] PMNL were obtained from the cell pellet. […] The reaction was stopped with an equal volume of methanol containing PGB1 (200 ng) as internal standard. Major 5-LOX products (all-trans isomers of LTB and 5-HETE, and additionally LTB4) were extracted and analyzed by RP-HPLC as described for the determination of cell-free 5-LOX activity.

The subject of test [5] is sEH. The note with it: cited from earlier work.

On to `O=C(O)CCCCCCCCCCCNC(=O)NC12CC3CC(CC(C3)C1)C2` [AUDA, reference compound], for which the “pancreatic injury (edema, cell infiltration, neutrophil numbers)” value in test [1] is “reduced pancreatic injury”.
By IC50 is commonly meant the midpoint of a concentration-inhibition curve. `O=C(NCC12C[C@H]3C[C@@H](C1)C[C@@H](C2)C3)Nc1ccc2c(ccn2-c2ccc(F)cc2)c1` [Compound 45, 1-(((3R,5R,7R)-Adamantan-1-yl)methyl)-3-(1-(4-fluorophenyl)-1H-indol-5-yl)urea]: in test [2], the IC50 came to 0.0044 ± 0.0005 µM. The molecule also displayed an IC50 in test [3] of over 1 µM. Besides, in test [4], the remaining activity at 10 µM was found to be 80.9 ± 1.7% and the remaining activity was 80.9 ± 1.7%.
For `O=C(NCC12C[C@H]3C[C@@H](C1)C[C@@H](C2)C3)Nc1ccc2c(c1)c1ccccc1n2Cc1ccc(F)cc1` [Compound 48, 1-(((3R,5R,7R)-Adamantan-1-yl)methyl)-3-(9-(4-fluorobenzyl)-9H-carbazol-3-yl)urea], the IC50 in test [2] came out at 0.02 ± 0.0038 µM. The same molecule gave an IC50 in test [3] of over 1 µM. Moreover, in test [4], the remaining activity at 10 µM came out at 92.6 ± 4% and the remaining activity is 92.6 ± 4%.
Consider `O=C(Nc1ccc2c(c1)CCN2Cc1ccc(F)cc1)NC1CCCCC1` [Compound 53], for which the “sEH inhibitory potency in words (Figure 1)” value in test [5] was “high sEH inhibitory potency”.
